This is an account of results in ChEMBL document CHEMBL1151168, “Cytotoxic sterols and saponins from the starfish Certonardoa semiregularis” (2004).

Format in all cases: functional
Details in all cases: read-out: ED50 (the source's name)

The subject of one assay is XF498. As to the kind of experiment: Cytotoxicity against human XF498 cells.
Another assay relates to HCT-15. As to the kind of experiment: Cytotoxicity against human HCT15 cells.
In another assay the test system is A549. In words: Cytotoxicity against human A549 cells.
The next assay concerns SK-MEL-2. In words: Cytotoxicity against human SK-MEL-2 cells.
For another assay, the system named is SK-OV-3. In words: Cytotoxicity against human SKOV3 cells.

In brackets after ≈: the same amount, converted by molar mass.

With `CC(C)[C@H](/C=C/[C@@H](C)[C@H]1C[C@@H](O)[C@H]2[C@@H]3C[C@H](O)[C@H]4C[C@@H](O)CC[C@]4(C)[C@H]3CC[C@@]21C)CO` [CERTONARDOSTEROL D2], the EC50 with XF498 turned out to be 0.07 µg/mL (≈ 0.156 µM); in the assay on HCT-15, 0.01 µg/mL (≈ 0.0223 µM); in the assay with A549, 0.15 µg/mL (≈ 0.334 µM); in the assay with SK-MEL-2 it was 0.09 µg/mL (≈ 0.201 µM); with SK-OV-3, 0.08 µg/mL (≈ 0.178 µM).

As for `CO[C@@H]1CO[C@@H](OCC[C@@H](CC[C@@H](C)[C@H]2[C@@H](O)[C@@H](O)[C@H]3[C@@H]4C[C@H](O)[C@H]5C[C@@H](O)CC[C@]5(C)[C@H]4CC[C@]23C)C(C)C)[C@H](O)[C@H]1O` [CERTONARDOSIDE O1], the EC50 amounted to 0.74 µg/mL (≈ 1.18 µM) in the assay on XF498; 2.28 µg/mL (≈ 3.64 µM) in the assay with HCT-15; 1.25 µg/mL (≈ 1.99 µM) with A549; 0.68 µg/mL (≈ 1.08 µM) with SK-MEL-2; 2 µg/mL (≈ 3.19 µM) in the assay on SK-OV-3.

For the compound `CO[C@@H]1CO[C@@H](OCC[C@@H](CC[C@@H](C)[C@H]2[C@@H](O)[C@@H](O)[C@@H]3[C@]2(C)CC[C@@H]2[C@@]4(C)CC[C@H](O)[C@H](O)[C@@H]4[C@@H](O)C[C@]23O)C(C)C)[C@H](O)[C@H]1O` [CERTONARDOSIDE I2], the EC50 in the assay on XF498 amounted to 3.69 µg/mL (≈ 5.6 µM); in the assay with HCT-15, 8.32 µg/mL (≈ 12.6 µM); with A549 it was 4.26 µg/mL (≈ 6.47 µM); with SK-MEL-2, 2.39 µg/mL (≈ 3.63 µM); in the assay with SK-OV-3, 3.06 µg/mL (≈ 4.64 µM).

Regarding `CC(C)[C@@H](CCO)CC[C@@H](C)[C@H]1[C@@H](O)[C@@H](O)[C@H]2[C@@H]3C[C@H](O)[C@H]4C[C@@H](O)CC[C@]4(C)[C@H]3CC[C@]12C` [CERTONARDOSTEROL N1], the EC50 with XF498 was determined as 0.43 µg/mL (≈ 0.894 µM); in the assay on HCT-15, 1.25 µg/mL (≈ 2.6 µM); in the assay on A549 it was 0.82 µg/mL (≈ 1.71 µM); in the assay on SK-MEL-2 it was 0.4 µg/mL (≈ 0.832 µM); in the assay on SK-OV-3, 0.9 µg/mL (≈ 1.87 µM).

As for `CO[C@@H]1CO[C@@H](OCC[C@@H](CC[C@@H](C)[C@H]2[C@@H](O)[C@@H](O)[C@@H]3[C@]2(C)CC[C@@H]2[C@@]4(C)CC[C@H](O)C[C@@H]4[C@@H](O)C[C@]23O)C(C)C)[C@H](O)[C@H]1O` [CERTONARDOSIDE P1], the EC50 stood at 0.35 µg/mL (≈ 0.544 µM) with XF498; 2.17 µg/mL (≈ 3.38 µM) with HCT-15; 0.87 µg/mL (≈ 1.35 µM) in the assay with A549; 0.26 µg/mL (≈ 0.404 µM) with SK-MEL-2; 0.89 µg/mL (≈ 1.38 µM) in the assay with SK-OV-3.

For the compound `C[C@H](/C=C/[C@@H](C)[C@H]1C[C@@H](O)[C@H]2[C@@H]3C[C@H](O)[C@H]4[C@@H](O)[C@@H](O)CC[C@]4(C)[C@H]3CC[C@@]21C)[C@H](C)CO` [CERTONARDOSTEROL B2], the EC50 stood at 2.21 µg/mL (≈ 4.76 µM) with XF498; 2.71 µg/mL (≈ 5.83 µM) in the assay with HCT-15; 2.33 µg/mL (≈ 5.01 µM) with A549; 2.23 µg/mL (≈ 4.8 µM) with SK-MEL-2; 2.64 µg/mL (≈ 5.68 µM) with SK-OV-3.

Turning to `C[C@H](/C=C/[C@@H](C)[C@H]1C[C@@H](O)[C@H]2[C@@H]3C[C@H](O)[C@H]4C[C@@H](O)CC[C@]4(C)[C@H]3CC[C@@]21C)[C@H](C)CO` [CERTONARDOSTEROL D4], the EC50 with XF498 was found to be 1.22 µg/mL (≈ 2.72 µM); in the assay with HCT-15, 1.25 µg/mL (≈ 2.79 µM); in the assay with A549, 1.75 µg/mL (≈ 3.9 µM); in the assay with SK-MEL-2 it was 0.48 µg/mL (≈ 1.07 µM); with SK-OV-3, 1.51 µg/mL (≈ 3.37 µM).

Turning to `CC(C)[C@@H](CCO)CC[C@@H](C)[C@H]1C[C@H](O)[C@H]2[C@@H]3C[C@@H](O)[C@H]4C[C@@H](O)CC[C@]4(C)[C@H]3CC[C@@]21C` [CERTONARDOSTEROL E2], the EC50 in the assay with XF498 was determined as 0.4 µg/mL (≈ 0.861 µM); in the assay on HCT-15, 1.26 µg/mL (≈ 2.71 µM); with A549, 0.48 µg/mL (≈ 1.03 µM); with SK-MEL-2 it was 0.28 µg/mL (≈ 0.602 µM); in the assay on SK-OV-3, 0.83 µg/mL (≈ 1.79 µM).

Take `C[C@H](/C=C/[C@@H](C)[C@H]1C[C@@H](O)[C@@H]2[C@]1(C)CC[C@@H]1[C@@]3(C)CC[C@H](O)[C@H](O)[C@@H]3[C@@H](O)C[C@]12O)[C@H](C)CO` [CERTONARDOSTEROL A2]: the EC50 with XF498 was 0.89 µg/mL (≈ 1.85 µM); in the assay on HCT-15, 2.54 µg/mL (≈ 5.28 µM); in the assay with A549 it was 1.75 µg/mL (≈ 3.64 µM); in the assay on SK-MEL-2, 0.67 µg/mL (≈ 1.39 µM); with SK-OV-3 it was 1.13 µg/mL (≈ 2.35 µM).

Turning to `CO[C@@H]1CO[C@@H](OCC[C@@H](CC[C@@H](C)[C@H]2[C@@H](O)[C@@H](O)[C@H]3[C@@H]4C[C@H](O)[C@H]5[C@@H](O)[C@@H](O)CC[C@]5(C)[C@H]4CC[C@]23C)C(C)C)[C@H](O)[C@H]1O` [CERTONARDOSIDE J2], the EC50 in the assay with XF498 was found to be 3.53 µg/mL (≈ 5.49 µM); in the assay on HCT-15, 8.2 µg/mL (≈ 12.8 µM); in the assay on A549, 3.41 µg/mL (≈ 5.3 µM); in the assay on SK-MEL-2 it was 2.36 µg/mL (≈ 3.67 µM); with SK-OV-3, 3.29 µg/mL (≈ 5.12 µM).

For the compound `C[C@H](/C=C/[C@@H](C)[C@H]1CC(O)[C@H]2[C@@H]3CC(O)[C@H]4C[C@@H](O)CC[C@]4(C)[C@H]3CC[C@]12C)[C@H](C)CO` (single isomer, unassigned) [CERTONARDOSTEROL E3], the EC50 amounted to 0.33 µg/mL (≈ 0.735 µM) in the assay with XF498; 0.73 µg/mL (≈ 1.63 µM) in the assay with HCT-15; 0.54 µg/mL (≈ 1.2 µM) in the assay on A549; 0.4 µg/mL (≈ 0.891 µM) in the assay with SK-MEL-2; 0.69 µg/mL (≈ 1.54 µM) in the assay on SK-OV-3.

Consider `COc1cccc2c1C(=O)c1c(O)c3c(c(O)c1C2=O)C[C@@](O)(C(=O)CO)C[C@@H]3O[C@H]1C[C@H](N)[C@H](O)[C@H](C)O1` [DOXORUBICIN], for which the EC50 in the assay on XF498 amounted to 0.06 µg/mL (≈ 0.11 µM); in the assay on HCT-15, 0.06 µg/mL (≈ 0.11 µM); in the assay with A549 it was 0.01 µg/mL (≈ 0.0184 µM); in the assay on SK-MEL-2, 0.02 µg/mL (≈ 0.0368 µM); with SK-OV-3, 0.08 µg/mL (≈ 0.147 µM).

On to `CC(C)[C@@H](CCO)CC[C@@H](C)[C@H]1[C@@H](O)[C@@H](O)[C@@H]2[C@]1(C)CC[C@@H]1[C@@]3(C)CC[C@H](O)[C@H](O)[C@@H]3[C@@H](O)C[C@]12O` [CERTONARDOSTEROL P1], for which the EC50 in the assay with XF498 worked out at 3.48 µg/mL (≈ 6.79 µM); with HCT-15 it was 4.39 µg/mL (≈ 8.56 µM); in the assay on A549, 3.3 µg/mL (≈ 6.44 µM); with SK-MEL-2, 2.5 µg/mL (≈ 4.88 µM); in the assay on SK-OV-3 it was 3.5 µg/mL (≈ 6.83 µM).

With `C[C@H](/C=C/[C@@H](C)[C@H]1C[C@@H](O)[C@@H]2[C@]1(C)CC[C@@H]1[C@@]3(C)CC[C@H](O)C[C@@H]3[C@@H](O)C[C@]12O)[C@H](C)CO` [CERTONARDOSTEROL C2], the EC50 with XF498 was 0.08 µg/mL (≈ 0.172 µM); with HCT-15 it was 0.25 µg/mL (≈ 0.538 µM); in the assay with A549, 0.15 µg/mL (≈ 0.323 µM); in the assay on SK-MEL-2, less than 0.1 µg/mL; in the assay with SK-OV-3, 0.16 µg/mL (≈ 0.344 µM).

As to `CC(C)[C@@H](CCO)CC[C@@H](C)[C@H]1C[C@@H](O)[C@H]2[C@@H]3C[C@H](O)[C@H]4C[C@@H](O)CC[C@]4(C)[C@H]3CC[C@@]21C` [CERTONARDOSTEROL D3], the EC50 is 0.84 µg/mL (≈ 1.81 µM) in the assay with XF498; 2.48 µg/mL (≈ 5.34 µM) in the assay with HCT-15; 1.36 µg/mL (≈ 2.93 µM) in the assay with A549; 0.68 µg/mL (≈ 1.46 µM) in the assay on SK-MEL-2; 1.33 µg/mL (≈ 2.86 µM) in the assay on SK-OV-3.

With `CC(C)[C@@H](CCO)CC[C@@H](C)[C@H]1[C@@H](O)[C@@H](O)[C@@H]2[C@]1(C)CC[C@@H]1[C@@]3(C)CC[C@H](O)C[C@@H]3[C@@H](O)C[C@]12O` [CERTONARDOSTEROL O1], the EC50 in the assay on XF498 amounted to 6.92 µg/mL (≈ 13.9 µM); with HCT-15, 17.7 µg/mL (≈ 35.6 µM); in the assay on A549 it was 8.32 µg/mL (≈ 16.7 µM); with SK-MEL-2, 5.32 µg/mL (≈ 10.7 µM); in the assay on SK-OV-3, 6.59 µg/mL (≈ 13.3 µM).

As to `CO[C@@H]1CO[C@@H](OCC[C@@H](/C=C/[C@@H](C)[C@H]2[C@@H](O)[C@@H](O)[C@H]3[C@@H]4C[C@H](O)[C@H]5[C@@H](O)[C@@H](O)CC[C@]5(C)[C@H]4CC[C@]23C)C(C)C)[C@H](O)[C@H]1O` [CERTONARDOSIDE J3], the EC50 with XF498 was 0.45 µg/mL (≈ 0.702 µM); in the assay with HCT-15, 2.76 µg/mL (≈ 4.31 µM); in the assay with A549, 0.83 µg/mL (≈ 1.3 µM); in the assay with SK-MEL-2 it was 0.3 µg/mL (≈ 0.468 µM); with SK-OV-3 it was 0.74 µg/mL (≈ 1.15 µM).
